# Experimental data reported in publication PMC3469417, “Loss of Slc4a1b Chloride/Bicarbonate Exchanger Function Protects Mechanosensory Hair Cells from Aminoglycoside Damage in the Zebrafish Mutant persephone” (PLoS Genetics, 2012).
# Assays:
# [1] = target: T1, zebrafish Slc4a1b (zSlc4a1b) (Danio rerio, UniProt D1FTM8); assay: […]- influx in Xenopus oocytes; format: cell-based; conditions: 200 µM DIDS; inhibitor; bath Cl- 103.6 mM, pH 7.4; disodium salt
# T1 construct: cRNA expressed in Xenopus laevis oocytes
# T1 sequence (D1FTM8 61-851): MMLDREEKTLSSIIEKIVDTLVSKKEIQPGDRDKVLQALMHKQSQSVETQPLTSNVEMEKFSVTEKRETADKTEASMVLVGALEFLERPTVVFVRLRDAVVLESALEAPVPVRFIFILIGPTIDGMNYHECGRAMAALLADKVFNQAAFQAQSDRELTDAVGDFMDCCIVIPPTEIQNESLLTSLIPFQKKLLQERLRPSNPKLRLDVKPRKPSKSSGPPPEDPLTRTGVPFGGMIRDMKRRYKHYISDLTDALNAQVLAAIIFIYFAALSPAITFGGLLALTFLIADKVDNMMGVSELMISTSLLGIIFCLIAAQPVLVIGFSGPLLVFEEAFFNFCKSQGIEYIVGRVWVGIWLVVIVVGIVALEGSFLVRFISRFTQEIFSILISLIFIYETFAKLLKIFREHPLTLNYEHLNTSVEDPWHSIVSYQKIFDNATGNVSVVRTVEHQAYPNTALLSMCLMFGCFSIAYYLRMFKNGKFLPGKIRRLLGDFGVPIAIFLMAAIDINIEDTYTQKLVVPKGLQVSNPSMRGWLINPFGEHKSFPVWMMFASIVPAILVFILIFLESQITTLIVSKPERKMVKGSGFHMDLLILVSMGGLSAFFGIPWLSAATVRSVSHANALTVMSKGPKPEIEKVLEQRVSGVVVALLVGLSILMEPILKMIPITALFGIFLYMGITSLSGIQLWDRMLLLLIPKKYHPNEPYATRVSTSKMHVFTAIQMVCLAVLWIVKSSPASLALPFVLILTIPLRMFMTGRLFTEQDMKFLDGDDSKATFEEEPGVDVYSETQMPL
# human SLC4A1 (hSlc4a1) = target: T2, human SLC4A1 (hSlc4a1) (Homo sapiens, UniProt P02730); assay: […]- influx in Xenopus oocytes; format: cell-based; conditions: 200 µM DIDS; inhibitor; bath Cl- 103.6 mM, pH 7.4; disodium salt
# T2 construct: expressed in Xenopus laevis oocytes
# T2 sequence (P02730 1-911): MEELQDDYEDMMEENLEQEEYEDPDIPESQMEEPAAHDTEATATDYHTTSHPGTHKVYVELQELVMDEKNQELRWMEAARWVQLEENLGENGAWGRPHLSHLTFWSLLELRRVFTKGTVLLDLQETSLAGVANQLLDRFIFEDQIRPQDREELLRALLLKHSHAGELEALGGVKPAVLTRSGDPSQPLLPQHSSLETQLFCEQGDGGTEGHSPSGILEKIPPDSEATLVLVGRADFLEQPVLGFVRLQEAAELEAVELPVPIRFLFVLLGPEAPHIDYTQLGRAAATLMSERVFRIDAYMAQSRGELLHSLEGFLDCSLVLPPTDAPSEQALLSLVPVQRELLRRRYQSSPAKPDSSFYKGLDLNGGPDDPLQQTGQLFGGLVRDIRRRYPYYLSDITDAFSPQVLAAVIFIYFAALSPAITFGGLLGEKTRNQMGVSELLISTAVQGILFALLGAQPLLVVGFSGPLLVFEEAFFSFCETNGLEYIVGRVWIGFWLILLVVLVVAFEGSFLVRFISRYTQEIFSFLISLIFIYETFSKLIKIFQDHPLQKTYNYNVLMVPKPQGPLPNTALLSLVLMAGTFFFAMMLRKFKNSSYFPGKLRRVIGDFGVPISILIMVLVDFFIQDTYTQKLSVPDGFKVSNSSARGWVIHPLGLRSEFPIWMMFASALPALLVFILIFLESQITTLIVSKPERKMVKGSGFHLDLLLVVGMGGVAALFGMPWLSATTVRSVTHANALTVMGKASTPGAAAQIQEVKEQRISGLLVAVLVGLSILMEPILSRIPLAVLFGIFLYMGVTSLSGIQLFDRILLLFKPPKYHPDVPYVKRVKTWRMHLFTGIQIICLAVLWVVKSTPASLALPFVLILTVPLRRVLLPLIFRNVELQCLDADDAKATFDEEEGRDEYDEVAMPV
structure (smiles),measurement,setting,value
"O=S(=O)(O)c1cc(N=C=S)ccc1/C=C/c1ccc(N=C=S)cc1S(=O)(=O)O [DIDS, 4,4′-diisothiocyano-2,2′-stilbenedisulfonic acid]",36Cl- influx in Xenopus oocytes,[1],zebrafish Slc4a1b and by human SLC4A1 was abolished by treatment with the disulfonic stilbene DIDS
same,36Cl- influx in Xenopus oocytes,human SLC4A1 (hSlc4a1),zebrafish Slc4a1b and by human SLC4A1 was abolished by treatment with the disulfonic stilbene DIDS
